Measurements from patent publication US20230051268A1, “USE OF L[…] TREATING INSOMNIA” (Eisai R&D Management Co., Ltd., priority 2019, published 2023).
Where “and” joins values, the source holds several entries; their conditions need not be identical. Equal values may be shown once. Read-outs that look alike come from different tables or passages of the source. Marks after values point to notes of the source that are not given here.

What was measured:
[1] = Single-dose pharmacokinetic study of lemborexant and metabolites M4, M9, M10 in subjects with mild or moderate hepatic impairment and healthy controls (plasma, LC-MS/MS); format: in vivo, human; conditions: for Ratio (%) (Test/Ref) of geometric mean AUC(0-inf) / Ratio (%) (Test/Ref) of geometric mean AUC(0-t) / Ratio (%) (Test/Ref) of geometric mean Cmax: lemborexant 10 mg single dose; for half-life / AUC(0-inf) / Vd/F / Cmax / AUC(0-t) / AUCu / CL/F / CLu/F: geometric mean (% CV); for Vd/F: read-out: Vz/F
Protocol: A multicenter, single-dose, open-label, parallel-group study in subjects with mild or moderate hepatic impairment and matched (with regard to age [±10 years], sex, and body mass index [BMI, ±20%]) healthy subjects as controls was performed.
The primary objective of the study was to assess the effect of mild and moderate hepatic impairment on the PK of lemborexant after a single-dose administration.
Secondary objectives of the study were: to evaluate the effects of hepatic impairment on the PK of lemborexant metabolites M4, M9, and M10; to evaluate the relationship between the PK parameters of lemborexant and its metabolites and the Child-Pugh classification score, serum albumin, total bilirubin, and PT; and to assess safety and tolerability of lemborexant following a single-dose administration in subjects with mild or moderate hepatic impairment and healthy control subjects.
(§1) On Day 1, the subjects were administered a single oral 10 mg dose of lemborexant with approximately 240 mL of water in the morning after an overnight fast. No food was allowed for at least 4 hours postdose. Water was allowed as desired except for 1 hour before and after drug administration.
(§2) The blood samples for PK assessments were collected at prespecified intervals up to 312 hours postdose administration. In addition, the blood samples for plasma protein binding assessments of lemborexant were collected from each subject at 2 time points; approximately 1 hour and 24 hours postdose. The subjects were discharged on Day 14 of the study. The end of the study was the date of the last study visit for the last subject.
(§3) Blood samples (4 mL each) for PK assessments of lemborexant and its metabolites (M4, M9, and M10) were collected at predose (0 hour), 0.5, 1, 1.5, 2, 3, 4, 6, 8, 12, 24, 48, 72, 96, 120, 144, 168, 216, 264, and 312 hours postdose. In addition, blood samples (12 mL per time point) for protein binding of lemborexant and its metabolites (M4, M9, and M10) were collected at 1 and 24 hours postdose matching the PK sample collection at those time points.
(§4) Total mean plasma concentrations of lemborexant and lemborexant metabolites (M4, M9, and M10) were measured by validated liquid chromatography with tandem mass spectrometry (LC-MS/MS). Unbound lemborexant concentrations of lemborexant, M4, M9, and M10 were also measured using a similar validated LC-MS/MS method following equilibrium dialysis.

[2] = Plasma protein binding (unbound fraction) by equilibrium dialysis and LC-MS/MS, samples 1 and 24 hours postdose; format: in vitro ADME; conditions: human, oral, 10 mg, lemborexant 10 mg single oral dose, geometric mean (% CV)
Protocol: as §2, §3, §4

[3] = Safety and tolerability assessment (TEAEs, ECGs, vital signs, laboratory tests) after single 10 mg dose; format: in vivo, human
Protocol: as §1
Safety was assessed by monitoring and documenting treat-emergent adverse events (TEAEs), ECGs, vital signs, weight, physical examinations, and clinical laboratory tests (urinalysis, hematology, and blood chemistry).

[4] = human, plasma, po, 10 mg, lemborexant 10 mg single oral dose, normal hepatic function (n = 8)
[5] = lemborexant 10 mg single oral dose, mild hepatic impairment (n = 7)
[6] = lemborexant 10 mg single oral dose, moderate hepatic impairment (n = 6)
[7] = lemborexant 10 mg single oral dose, normal hepatic function (n = 8)
[8] = moderate hepatic impairment, 10 mg

## Cc1ncc(OC[C@@]2(c3cccc(F)c3)C[C@H]2C(=O)Nc2ccc(F)cn2)c(C)n1 [lemborexant, (1R,2S)-2-(((2,4-dimethylpyrimidin-5-yl)oxy)methyl)-2-(3-fluorophenyl)-N-(5-fluoropyridin-2-yl)cyclopropanecarboxamide]
[1]; Mild: Normal
  Ratio (%) (Test/Ref) of geometric mean AUC(0-inf): 125.03%
  Ratio (%) (Test/Ref) of geometric mean AUC(0-t): 131.91%
  Ratio (%) (Test/Ref) of geometric mean Cmax: 157.86%
[1]; Moderate: Normal
  Ratio (%) (Test/Ref) of geometric mean AUC(0-inf): 153.56%
  Ratio (%) (Test/Ref) of geometric mean AUC(0-t): 149.52%
  Ratio (%) (Test/Ref) of geometric mean Cmax: 122.20%
[1]; human, plasma, oral, 10 mg, normal, mild and moderate cohorts, 10 mg tablet, read-out: median tmax across cohorts
  Tmax: 1 to 1.25 h
[1]; human, plasma, po, 10 mg, lemborexant 10 mg single oral dose, mild hepatic impairment (lemborexant n = 7)
  half-life: 73.7 h
[1]; human, plasma, po, 10 mg, lemborexant 10 mg single oral dose, mild hepatic impairment (lemborexant n = 7), read-out: AUC(0-inf)
  AUC(0-inf): 567 ng·h/mL
[1]; human, plasma, po, 10 mg, lemborexant 10 mg single oral dose, mild hepatic impairment (n = 7)
  Vd/F: 1880 L
[1]; human, plasma, po, 10 mg, lemborexant 10 mg single oral dose, mild hepatic impairment (n = 8)
  Cmax: 62.9 ng/mL
[1]; human, plasma, po, 10 mg, lemborexant 10 mg single oral dose, mild hepatic impairment (n = 8), read-out: AUC(0-t)
  AUC(0-t): 574 ng·h/mL
[1]; human, plasma, po, 10 mg, lemborexant 10 mg single oral dose, mild hepatic impairment (n = 8), median (range), read-out: tmax
  Tmax: 1 h
[1]; human, plasma, po, 10 mg, lemborexant 10 mg single oral dose, moderate hepatic impairment (lemborexant n = 6)
  half-life: 105 h
[1]; human, plasma, po, 10 mg, lemborexant 10 mg single oral dose, moderate hepatic impairment (lemborexant n = 6), read-out: AUC(0-inf)
  AUC(0-inf): 696 ng·h/mL
[1]; human, plasma, po, 10 mg, lemborexant 10 mg single oral dose, moderate hepatic impairment (n = 6)
  Vd/F: 2170 L
[1]; human, plasma, po, 10 mg, lemborexant 10 mg single oral dose, moderate hepatic impairment (n = 8)
  Cmax: 48.7 ng/mL
[1]; human, plasma, po, 10 mg, lemborexant 10 mg single oral dose, moderate hepatic impairment (n = 8), read-out: AUC(0-t)
  AUC(0-t): 651 ng·h/mL
[1]; human, plasma, po, 10 mg, lemborexant 10 mg single oral dose, moderate hepatic impairment (n = 8), median (range), read-out: tmax
  Tmax: 1 h
[1]; [4]
  Cmax: 39.8 ng/mL
  half-life: 67 h
  Vd/F: 2130 L
[1]; human, plasma, po, 10 mg, lemborexant 10 mg single oral dose, normal hepatic function (n = 8), read-out: AUC(0-inf)
  AUC(0-inf): 453 ng·h/mL
[1]; human, plasma, po, 10 mg, lemborexant 10 mg single oral dose, normal hepatic function (n = 8), read-out: AUC(0-t)
  AUC(0-t): 435 ng·h/mL
[1]; human, plasma, po, 10 mg, lemborexant 10 mg single oral dose, normal hepatic function (n = 8), median (range), read-out: tmax
  Tmax: 1.25 h
[1]; lemborexant 10 mg single oral dose, mild hepatic impairment (lemborexant n = 7)
  AUC(0-inf): 567 ng·h/mL
[1]; [5]
  AUCu: 34.9 (52.6)^b h * ng/mL
  CL/F: 17.6 L/h and 17.6 (52.0)^b L/h
  CLu/F: 287 (52.6)^b L/h
[1]; lemborexant 10 mg single oral dose, mild hepatic impairment (n = 8)
  AUC(0-t): 574 ng·h/mL
[1]; lemborexant 10 mg single oral dose, moderate hepatic impairment (lemborexant n = 6)
  AUC(0-inf): 696 ng·h/mL
[1]; [6]
  AUCu: 45.1 (42.6)^c h * ng/mL
  CL/F: 14.4 L/h and 14.4 (34.6)^c L/h
  CLu/F: 222 (42.6)^c L/h
[1]; lemborexant 10 mg single oral dose, moderate hepatic impairment (n = 8)
  AUC(0-t): 651 ng·h/mL
[1]; [7]
  AUCu: 27.1 (36.8) h * ng/mL
  CL/F: 22.1 L/h and 22.1 (33.9) L/h
[1]; mild hepatic impairment, 10 mg
  decrease of total body clearance compared with healthy subjects: 20%
  increase of AUC(0-inf) compared to healthy subjects: 25%
  increase of Cmax compared to healthy subjects: 58%
[1]; mild or moderate hepatic impairment, single 10-mg tablet
  exposure (geometric mean Cmax, AUC) compared with healthy control subjects: higher
[1]; [8]
  decrease of total body clearance compared with healthy subjects: 35%
  increase of AUC(0-inf) compared to healthy subjects: 54%
  increase of Cmax compared to healthy subjects: 22%
[1]; vs Child-Pugh score, serum albumin, total bilirubin, MELD score, PT
  effects of mild and moderate hepatic impairment on PK (scatter plots, linear regression): small and similar
[2]; mild hepatic impairment (n = 8)
  fraction unbound: 0.063
[2]; moderate hepatic impairment (n = 8)
  fraction unbound: 0.065
[2]; normal hepatic function (n = 8)
  fraction unbound: 0.0597
[3]; Class A (mild hepatic impairment)
  subjects who experienced a TEAE: 7 (87.5%) subjects (%)
[3]; Class B (moderate hepatic impairment)
  subjects who experienced a TEAE: 6 (75.0%) subjects (%)
[3]; Healthy Controls
  subjects who experienced a TEAE: 7 (87.5%) subjects (%)
[3]; all 24 subjects
  subjects who experienced a TEAE: 20 (83.3%) subjects (%)
[3]; all cohorts
  TEAEs potentially related to cataplexy: no TEAEs potentially related to cataplexy
  TEAEs that led to subject discontinuation: none
  severity of TEAEs: mild in severity
[3]; all cohorts, single 10 mg dose
  SAEs reported: No SAEs were reported
